According to the supplement of paper PMC13380429:
± gives the standard deviation of the averaged measurements.

Tests used:
Details in all cases: 72 h
[1] = system: Calu-3; assay: cell viability relative to DMSO; higher = less toxic
[2] = system: U2OS; assay: as above
[3] = system: Vero E6; assay: as above
[4] = system: HepG2; assay: as above
[5] = system: Caco-2; assay: as above
[6] = system: Calu-3; assay: drug sensitivity score (DSS) for viability; higher = more toxic; extreme values may be limits of the assay
[7] = system: U2OS; assay: as above
[8] = system: Vero E6; assay: as above
[9] = system: HepG2; assay: as above
[10] = system: Caco-2; assay: as above
[11] = system: Calu-3; assay: relative viability EC50 (midpoint between 100% and the lowest measured viability); higher = less toxic
[12] = system: U2OS; assay: as above
[13] = system: Vero E6; assay: as above
[14] = system: HepG2; assay: as above
[15] = system: Caco-2; assay: as above

Structure (SMILES)	cell viability ([1]; 1 nM)	cell viability ([1]; 10 nM)	cell viability ([1]; 100 nM)	cell viability ([1]; 1000 nM)	cell viability ([1]; 10000 nM)	cell viability ([2]; 1 nM)	cell viability ([2]; 10 nM)	cell viability ([2]; 100 nM)	cell viability ([2]; 1000 nM)	cell viability ([2]; 10000 nM)	cell viability ([3]; 1 nM)	cell viability ([3]; 10 nM)	cell viability ([3]; 100 nM)	cell viability ([3]; 1000 nM)	cell viability ([3]; 10000 nM)	cell viability ([4]; 1 nM)	cell viability ([4]; 10 nM)	cell viability ([4]; 100 nM)	cell viability ([4]; 1000 nM)	cell viability ([4]; 10000 nM)	cell viability ([5]; 1 nM)	cell viability ([5]; 10 nM)	cell viability ([5]; 100 nM)	cell viability ([5]; 1000 nM)	cell viability ([5]; 10000 nM)	drug sensitivity score [6]	drug sensitivity score [7]	drug sensitivity score [8]	drug sensitivity score [9]	drug sensitivity score [10]	relative viability EC50 [11]	relative viability EC50 [12]	relative viability EC50 [13]	relative viability EC50 [14]	relative viability EC50 [15]
COC(=O)[C@H](c1ccccc1Cl)N1CCc2sccc2C1 [clopidogrel]	89.9%	104%	96.9%	96.7%	101%	94.8%	99.3%	95.8%	102%	97.6%	105%	86.7%	104%	104%	108%	97.7%	97.7%	98.4%	112%	101%	91.9%	91.8%	95.1%	95%	88.2%	0	0	0	0	0	> 10 µM	> 10 µM	> 10 µM	> 10 µM	> 10 µM
CCC(C)CCCC(=O)N[C@@H](CCN)C(=O)N[C@H](C(=O)N[C@@H](CCN)C(=O)N[C@H]1CCNC(=O)[C@H]([C@@H](C)O)NC(=O)[C@H](CCN)NC(=O)[C@H](CCN)NC(=O)[C@H](CC(C)C)NC(=O)[C@@H](CC(C)C)NC(=O)[C@H](CCN)NC1=O)[C@@H](C)O (stereo not given in full) [colistin]	100 ± 4%	93.4 ± 4.2%	94.3 ± 4.8%	98 ± 15%	85.4 ± 7.2%	99.7 ± 1.4%	100 ± 2%	97.8 ± 0.14%	102.75 ± 0.071%	99.2 ± 1.1%	101 ± 2.5%	101 ± 2.5%	104 ± 2.5%	98.5 ± 1.2%	103 ± 1.6%	94 ± 1.7%	105 ± 2%	99.3 ± 11%	103 ± 2%	97.5 ± 8.1%	94.7 ± 6.2%	98.4 ± 1.8%	101 ± 7.6%	104 ± 1.4%	101 ± 10%	0.95 ± 1.3	0	0	0	0	> 10 µM	> 10 µM	> 10 µM	> 10 µM	> 10 µM
O=C(O)c1ccc(OCCn2ccnc2)cc1 [dazoxiben]	101%	97.7%	103%	102%	97.7%	99.8%	96.5%	103%	91.4%	103%	96.3%	101%	96.9%	103%	110%	104%	103%	84.5%	102%	89.8%	108%	92.7%	114%	98.2%	101%	0	0	0	0	0	> 10 µM	> 10 µM	> 10 µM	> 10 µM	> 10 µM
COc1ccc2c(c1)[C@]13CCCC[C@@H]1[C@H](C2)N(C)CC3 [dextromethorphan]	95.6%	106%	89.6%	99.3%	102%	97.1%	98.3%	99.7%	95.3%	97.1%	92.1%	100%	97.3%	95.9%	104%	111%	108%	95.8%	103%	109%	98.1%	98.9%	104%	97.7%	97.7%	0	0	0	0	0	> 10 µM	> 10 µM	> 10 µM	> 10 µM	> 10 µM
N#Cc1ccc(N2CCN(C(=O)COc3ccc4[nH]cc(CCN)c4c3)CC2)cc1 [donitriptan]	89%	103%	107%	106%	111%	101%	102%	99.4%	99.7%	107%	95.1%	101%	98%	98.5%	107%	102%	105%	94.1%	102%	94.8%	92.4%	88.7%	89%	97.1%	104%	0	0	0	0	0	> 10 µM	> 10 µM	> 10 µM	> 10 µM	> 10 µM
CCN[C@H]1C[C@H](C)S(=O)(=O)c2sc(S(N)(=O)=O)cc21 [dorzolamide]	100%	100%	95.7%	88.3%	98.4%	95.2%	100%	93.6%	101%	97.4%	98.5%	101%	92.6%	98.1%	91.1%	113%	93.7%	104%	94.9%	99.4%	101%	108%	84%	94.7%	100%	0	0	0	0	0	> 10 µM	> 10 µM	> 10 µM	> 10 µM	> 10 µM
CCN(CC)C(=O)/C(C#N)=C/c1cc(O)c(O)c([N+](=O)[O-])c1 [entacapone]	92.3%	86.9%	94.7%	98.5%	101%	96.8%	102%	98%	98.9%	99.7%	100%	99.2%	93.2%	96%	100%	98.3%	84.1%	102%	92.2%	100%	93.7%	98.4%	95.5%	96%	93.2%	0	0	0	0	0	> 10 µM	> 10 µM	> 10 µM	> 10 µM	> 10 µM
O=C(O[C@@H]1Cc2c(O)cc(O)cc2O[C@@H]1c1cc(O)c(O)c(O)c1)c1cc(O)c(O)c(O)c1 [epigallocatechin-gallate-(-)]	103%	90.5%	103%	96.8%	97.1%	100%	98.2%	103%	97%	97.3%	98.5%	100%	103%	98.2%	95.4%	101%	107%	93.1%	97.8%	97.5%	103%	99.1%	97.7%	99.7%	101%	0	0	0	0	0	> 10 µM	> 10 µM	> 10 µM	> 10 µM	> 10 µM
O=c1ccc2cc(O[C@@H]3O[C@H](CO)[C@@H](O)[C@H](O)[C@H]3O)c(O)cc2o1 [esculin]	95.4%	101%	91%	96%	107%	100%	99.4%	96.8%	103%	98.2%	105%	98.8%	102%	95.4%	104%	104%	97.3%	97.4%	101%	96%	93%	105%	91.7%	102%	99.6%	0	0	0	0	0	> 10 µM	> 10 µM	> 10 µM	> 10 µM	> 10 µM
CCc1cccc2c3c([nH]c12)C(CC)(CC(=O)O)OCC3 (stereo not given) [etodolac]	98%	107%	98.7%	91.9%	106%	95.7%	103%	96.2%	104%	93.4%	91.7%	98.8%	93.7%	105%	95.2%	105%	107%	96.3%	94.4%	99.1%	86.2%	99.4%	82.7%	86.9%	87.9%	0	0	0	0	0	> 10 µM	> 10 µM	> 10 µM	> 10 µM	> 10 µM
O=C(OCCOCCO)c1ccccc1Nc1cccc(C(F)(F)F)c1 [etofenamate]	108%	95.6%	95.8%	82.5%	96.3%	102%	95.2%	98.7%	100%	96.3%	100%	103%	103%	89.3%	81.7%	96.2%	105%	92.4%	101%	104%	98.1%	91%	92.4%	90.8%	96.1%	0.1	0	1.5	0	0	> 10 µM	> 10 µM	> 10 µM	> 10 µM	> 10 µM
Cc1oc(=O)oc1COC(=O)C1=C([C@H]2CCCO2)S[C@@H]2[C@@H]([C@@H](C)O)C(=O)N12 [faropenem-medoxomil]	99.3%	94.7%	102%	93%	98.8%	98.8%	96.3%	98.3%	98.2%	99.9%	94.7%	94.1%	97.6%	92.4%	97.9%	103%	99.2%	98.1%	95.1%	100%	95.6%	93.4%	96.8%	93.2%	97.9%	0	0	0	0	0	> 10 µM	> 10 µM	> 10 µM	> 10 µM	> 10 µM
CC(C)(Oc1ccc(C(=O)c2ccc(Cl)cc2)cc1)C(=O)O [fenofibric-acid]	90.5%	94.5%	101%	102%	98.9%	103%	100%	97.5%	100%	95.5%	102%	102%	101%	95.4%	97%	91.3%	96.6%	90.9%	94.9%	90.8%	92.4%	106%	91.9%	96.2%	105%	0	0	0	0	0	> 10 µM	> 10 µM	> 10 µM	> 10 µM	> 10 µM
Nc1nc(F)nc2c1ncn2[C@@H]1O[C@H](COP(=O)(O)O)[C@@H](O)[C@@H]1O [fludarabine-phosphate]	97.1%	86.8%	98.3%	92.9%	89.2%	103%	105%	97.4%	99.7%	104%	104%	105%	101%	101%	97.6%	90.9%	85.3%	94.7%	98.5%	77.7%	94.5%	106%	98.6%	96.9%	101%	0	0	0	0	0	> 10 µM	> 10 µM	> 10 µM	> 10 µM	> 10 µM
